Assay results taken from US11186576B2, “Pyrazolo[1,5-A][1,3,5]triazine and pyrazolo[1,5-A]pyrimidine derivatives as CDK inhibitors” (Aurigene Discovery Technologies Limited, priority 2015, dated 2021).
Where two headings read alike, the source gives them in different places.

Target: CDK7/CycH/MNAT1 (Homo sapiens (Human), UniProt P50613)
Test: Biochemical assay for CDK7 (TR-FRET kinase assay)
Conditions: for inhibition at 10 µM: read-out: % inhibition @ 10 μM; for IC50: read-out: IC50
Experimental: The ability of compounds to inhibit CDK7 kinase activity was tested in a TR-FRET assay using 5 nM of CDK7/CycH/MNAT1 obtained from Invitrogen, USA. Test compounds were pre-incubated with the kinase at room temperature for 60 min. After incubation, substrate mix [100 nM Ultra-light MBP (Perkin Elmer, USA) and 1 mM ATP (Sigma)] was added. The above reaction was stopped by the addition of 40 mM EDTA after 60 minutes of kinase reaction. 1 nM Eu-labelled antiphospho-MBP antibody [Perkin Elmer, USA] was added, mixed well and the fluorescence emission at 615 nm and 665 nm [excitation at 340 nm] was measured. The final DMSO concentration in the assay was 1%. For IC50 determination, appropriate concentrations were made by ⅓^rd serial dilutions of 10 mM DMSO stock solution of test compound. All the fluorescence measurements were made in a Victor 3 Multilabel Counter [Perkin Elmer, USA]. The IC50 was determined by fitting the dose response data to sigmoidal curve fitting equation using GraphPad Prism software V5. To identify compounds that inhibit CDK7 irreversibly, time depended inhibition studies were carried by pre-incubating compound with the enzyme at three time points (20, 60 and 180 min) and carrying out assay as described above.

[1] = 10 μM compound, 60 min pre-incubation, 1 mM ATP
[2] = 60 min pre-incubation, 1 mM ATP

Sequence of CDK7/CycH/MNAT1 (P50613 whole entry): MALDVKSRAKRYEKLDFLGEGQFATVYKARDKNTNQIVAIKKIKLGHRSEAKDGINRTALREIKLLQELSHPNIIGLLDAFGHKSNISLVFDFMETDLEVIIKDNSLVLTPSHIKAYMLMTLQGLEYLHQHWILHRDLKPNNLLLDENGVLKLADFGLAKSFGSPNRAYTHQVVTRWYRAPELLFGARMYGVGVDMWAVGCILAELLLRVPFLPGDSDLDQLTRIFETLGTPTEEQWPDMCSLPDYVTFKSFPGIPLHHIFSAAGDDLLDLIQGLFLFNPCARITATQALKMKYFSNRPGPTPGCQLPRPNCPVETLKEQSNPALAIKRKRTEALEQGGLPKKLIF
Sequence of CDK7/CycH/MNAT1 (P51946 whole entry partner): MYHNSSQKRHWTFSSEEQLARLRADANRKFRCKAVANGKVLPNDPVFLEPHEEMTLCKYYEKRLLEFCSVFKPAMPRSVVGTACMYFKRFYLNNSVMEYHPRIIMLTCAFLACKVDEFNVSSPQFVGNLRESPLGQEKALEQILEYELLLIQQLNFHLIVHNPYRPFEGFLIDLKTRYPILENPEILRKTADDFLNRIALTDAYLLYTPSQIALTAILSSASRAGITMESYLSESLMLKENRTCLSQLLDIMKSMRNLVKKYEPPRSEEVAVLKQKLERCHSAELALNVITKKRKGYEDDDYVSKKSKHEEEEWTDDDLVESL
Sequence of CDK7/CycH/MNAT1 (P51948 whole entry partner): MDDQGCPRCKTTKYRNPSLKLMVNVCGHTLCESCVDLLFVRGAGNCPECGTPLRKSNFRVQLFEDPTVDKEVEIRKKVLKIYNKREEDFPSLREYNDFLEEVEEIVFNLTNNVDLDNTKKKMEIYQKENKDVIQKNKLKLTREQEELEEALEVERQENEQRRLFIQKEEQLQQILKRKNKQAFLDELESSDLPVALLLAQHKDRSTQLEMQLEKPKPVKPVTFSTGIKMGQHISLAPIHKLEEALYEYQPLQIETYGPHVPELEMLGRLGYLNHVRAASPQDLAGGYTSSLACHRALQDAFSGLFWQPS

CC(C)c1cnn2c(NCc3ccc(F)c(NC(=O)C4CCCN(C(=O)/C=C/CN(C)C)C4)c3)nc(OC3CCN(C)CC3)nc12 (stereo not drawn) [Compound 123, (E)-1-(4-(dimethylamino)but-2-enoyl)-N-(2-fluoro-5-(((8-isopropyl-2-((1-methylpiperidin-4-yl)oxy)pyrazolo[1,5-a][1,3,5]triazin-4-yl)amino)methyl)phenyl)piperidine-3-carboxamide]
inhibition at 10 µM [1]: 96%
IC50 [2]: < 300 nM

C=CC(=O)N1CCC(C(=O)Nc2cccc(CNc3nc(OCC(C)C)nc4c(C(C)C)cnn34)c2)C1 (stereo not drawn) [Compound 102, 1-acryloyl-N-(3-(((2-isobutoxy-8-isopropylpyrazolo[1,5-a][1,3,5]triazin-4-yl)amino)methyl)phenyl)pyrrolidine-3-carboxamide]
inhibition at 10 µM [1]: 82%
IC50 [2]: 300 to 1000 nM

CC(C)c1cnn2c(NCc3ccccc3N3CCN(C(=O)/C=C/CN(C)C)CC3)nc(NC3CCOCC3)nc12 [Compound 137, (E)-4-(dimethylamino)-1-(4-(2-(((8-isopropyl-2-((tetrahydro-2H-pyran-4-yl)amino)pyrazolo[1,5-a][1,3,5]triazin-4-yl)amino)methyl)phenyl)piperazin-1-yl)but-2-en-1-one]
inhibition at 10 µM [1]: 99%
IC50 [2]: < 300 nM

CC(C)c1cnn2c(NCc3cccc(NC(=O)/C=C/CN4CCC(F)(F)C4)c3)nc(NC3CCOCC3)nc12 [Compound 57, (E)-4-(3,3-difluoropyrrolidin-1-yl)-N-(3-(((8-isopropyl-2-((tetrahydro-2H-pyran-4-yl)amino)pyrazolo[1,5-a][1,3,5]triazin-4-yl)amino)methyl)phenyl)but-2-enamide]
inhibition at 10 µM [1]: 84%
IC50 [2]: > 1000 nM

CC(C)c1cnn2c(NCc3cc(F)cc(NC(=O)/C=C/CN(C)C)c3)nc(NC3CCOCC3)nc12 [Compound 59, (E)-4-(dimethylamino)-N-(3-fluoro-5-(((8-isopropyl-2-((tetrahydro-2H-pyran-4-yl)amino)pyrazolo[1,5-a][1,3,5]triazin-4-yl)amino)methyl)phenyl)but-2-enamide]
inhibition at 10 µM [1]: 98%
IC50 [2]: < 300 nM

C=CC(=O)NC1CCCC(C(=O)Nc2cccc(CNc3nc(NC4CCOCC4)nc4c(C(C)C)cnn34)c2)C1 (stereo not drawn) [Compound 22, 3-acrylamido-N-(3-(((8-isopropyl-2-((tetrahydro-2H-pyran-4-yl)amino)pyrazolo[1,5-a][1,3,5]triazin-4-yl)amino)methyl)phenyl)cyclohexane-1-carboxamide]
inhibition at 10 µM [1]: 98%
IC50 [2]: < 300 nM

C=CC(=O)Nc1cccc(C(=O)Nc2cccc(CNc3nc(NC4CCOCC4)nc4c(C(C)C)cnn34)c2)c1 [Compound 47, 3-acrylamido-N-(3-(((8-isopropyl-2-((tetrahydro-2H-pyran-4-yl)amino)pyrazolo[1,5-a][1,3,5]triazin-4-yl)amino)methyl)phenyl)benzamide]
inhibition at 10 µM [1]: 100%
IC50 [2]: < 300 nM

CC(C)c1cnn2c(NC(C)c3cccc(NC(=O)C4CCCN(C(=O)/C=C/CN(C)C)C4)c3)nc(NC3CCOCC3)nc12 (stereo not drawn) [Compound 72, (E)-1-(4-(dimethylamino)but-2-enoyl)-N-(3-(1-((8-isopropyl-2-((tetrahydro-2H-pyran-4-yl)amino)pyrazolo[1,5-a][1,3,5]triazin-4-yl)amino)ethyl)phenyl)piperidine-3-carboxamide]
inhibition at 10 µM [1]: 84%
IC50 [2]: 300 to 1000 nM

C=CC(=O)N1CCOC(C(=O)Nc2cccc(CNc3nc(NC4CCOCC4)nc4c(C(C)C)cnn34)c2)C1 (stereo not drawn) [Compound 23, 4-acryloyl-N-(3-(((8-isopropyl-2-((tetrahydro-2H-pyran-4-yl)amino)pyrazolo[1,5-a][1,3,5]triazin-4-yl)amino)methyl)phenyl)morpholine-2-carboxamide]
inhibition at 10 µM [1]: 98%
IC50 [2]: < 300 nM

C=CC(=O)N1CCC1C(=O)Nc1ccc(F)c(CNc2nc(NC3CCOCC3)nc3c(C(C)C)cnn23)c1 (stereo not drawn) [Compound 29, 1-acryloyl-N-(4-fluoro-3-(((8-isopropyl-2-((tetrahydro-2H-pyran-4-yl)amino)pyrazolo[1,5-a][1,3,5]triazin-4-yl)amino)methyl)phenyl)azetidine-2-carboxamide]
inhibition at 10 µM [1]: 98%
IC50 [2]: < 300 nM

C=CC(=O)N1CCOCC1C(=O)Nc1ccc(CC)c(CNc2nc(NC3CCOCC3)nc3c(C(C)C)cnn23)c1 (stereo not drawn) [Compound 26, 4-acryloyl-N-(4-ethyl-3-(((8-isopropyl-2-((tetrahydro-2H-pyran-4-yl)amino)pyrazolo[1,5-a][1,3,5]triazin-4-yl)amino)methyl)phenyl)morpholine-3-carboxamide]
inhibition at 10 µM [1]: 95%
IC50 [2]: 300 to 1000 nM

CC(C)c1cnn2c(NCc3cccc(NC(=O)/C=C/CN4CCCCC4)c3)nc(NC3CCOCC3)nc12 [Compound 55, (E)-N-(3-(((8-isopropyl-2-((tetrahydro-2H-pyran-4-yl)amino)pyrazolo[1,5-a][1,3,5]triazin-4-yl)amino)methyl)phenyl)-4-(piperidin-1-yl)but-2-enamide]
inhibition at 10 µM [1]: 99%
IC50 [2]: < 300 nM

C=CC(=O)N1CCOCC1C(=O)Nc1cccc(CNc2nc(OC3CCN(C)CC3)nc3c(C(C)C)cnn23)c1 (stereo not drawn) [Compound 113, 4-acryloyl-N-(3-(((8-isopropyl-2-((1-methylpiperidin-4-yl)oxy)pyrazolo[1,5-a][1,3,5]triazin-4-yl)amino)methyl)phenyl)morpholine-3-carboxamide]
IC50 [2]: < 300 nM

CCN(CC)C/C=C/C(=O)Nc1cccc(CNc2nc(NC3CCOCC3)nc3c(C(C)C)cnn23)c1 [Compound 50, (E)-4-(diethylamino)-N-(3-(((8-isopropyl-2-((tetrahydro-2H-pyran-4-yl)amino)pyrazolo[1,5-a][1,3,5]triazin-4-yl)amino)methyl)phenyl)but-2-enamide]
inhibition at 10 µM [1]: 97%
IC50 [2]: < 300 nM

C=CC(=O)N1CCCC(C(=O)Nc2ccc(CNc3nc(OC4CCN(C)CC4)nc4c(C(C)C)cnn34)c[n+]2[O-])C1 (stereo not drawn) [Compound 120, 2-(1-acryloylpiperidine-3-carboxamido)-5-(((8-isopropyl-2-((1-methylpiperidin-4-yl)oxy)pyrazolo[1,5-a][1,3,5]triazin-4-yl)amino)methyl)pyridine 1-oxide]
inhibition at 10 µM [1]: 93%
IC50 [2]: < 300 nM

C=CC(=O)N[C@H]1CC[C@@H](C(=O)Nc2ccc(F)c(CNc3nc(NC4CCOCC4)nc4c(C(C)C)cnn34)c2)CC1 [Compound 39, (1,4-cis)-4-acrylamido-N-(4-fluoro-3-(((8-isopropyl-2-((tetrahydro-2H-pyran-4-yl)amino)pyrazolo[1,5-a][1,3,5]triazin-4-yl)amino)methyl)phenyl)cyclohexane-1-carboxamide]
inhibition at 10 µM [1]: 76%
IC50 [2]: > 1000 nM

CC(C)c1cnn2c(NCc3cccc(NC(=O)[C@H]4CC[C@@H](NC/C=C/C(=O)N(C)C)CC4)c3)nc(OC3CCN(C)CC3)nc12 [Compound 135, (1s,4s)-4-(((E)-4-(dimethylamino)-4-oxobut-2-en-1-yl)amino)-N-(3-(((8-isopropyl-2-((1-methylpiperidin-4-yl)oxy)pyrazolo[1,5-a][1,3,5]triazin-4-yl)amino)methyl)phenyl)cyclohexane-1-carboxamide]
inhibition at 10 µM [1]: 97%
IC50 [2]: < 300 nM

CC(C)c1cnn2c(Nc3cccc(NC(=O)c4ccc(NC(=O)/C=C/CN(C)C)cc4)c3)nc(OC3CCN(C)CC3)nc12 [Compound 130, (E)-4-(4-(dimethylamino)but-2-enamido)-N-(3-((8-isopropyl-2-((1-methylpiperidin-4-yl)oxy)pyrazolo[1,5-a][1,3,5]triazin-4-yl)amino)phenyl)benzamide]
IC50 [2]: < 300 nM
inhibition at 10 µM: 97%

C=CC(=O)N[C@H]1CC[C@@H](C(=O)Nc2cccc(Nc3nc(NC4CCOCC4)nc4c(C(C)C)cnn34)c2)CC1 [Compound 87, (1,4-cis)-4-acrylamido-N-(3-((8-isopropyl-2-((tetrahydro-2H-pyran-4-yl)amino)pyrazolo[1,5-a][1,3,5]triazin-4-yl)amino)phenyl)cyclohexane-1-carboxamide]
% inhibition @ 10 μM [1]: 32%

CC(C)c1cnn2c(NCc3cccc(NC(=O)C4COCCN4C(=O)/C=C/CN(C)C)c3)nc(NC3CCOCC3)nc12 (stereo not drawn) [Compound 73, (E)-4-(4-(dimethylamino)but-2-enoyl)-N-(3-(((8-isopropyl-2-((tetrahydro-2H-pyran-4-yl)amino)pyrazolo[1,5-a][1,3,5]triazin-4-yl)amino)methyl)phenyl)morpholine-3-carboxamide]
inhibition at 10 µM [1]: 101%
IC50 [2]: < 300 nM

C=CC(=O)N1CCC[C@H](NC(=O)c2cccc(CNc3nc(NC4CCOCC4)nc4c(C(C)C)cnn34)c2)C1 [Compound 41, (S)—N-(1-acryloylpiperidin-3-yl)-3-(((8-isopropyl-2-((tetrahydro-2H-pyran-4-yl)amino)pyrazolo[1,5-a][1,3,5]triazin-4-yl)amino)methyl)benzamide]
inhibition at 10 µM [1]: 92%
IC50 [2]: 300 to 1000 nM

CC(C)c1cnn2c(NCc3cccc(NC(=O)/C=C/CN(C)C)c3)nc(NC3CCOCC3)nc12 [Compound 53, (E)-4-(dimethylamino)-N-(3-(((8-isopropyl-2-((tetrahydro-2H-pyran-4-yl)amino)pyrazolo[1,5-a][1,3,5]triazin-4-yl)amino)methyl)phenyl)but-2-enamide]
inhibition at 10 µM [1]: 99%
IC50 [2]: < 300 nM
